Results reported in patent publication US20080194732A1, “Optically transparent polymer with antibiofouling properties” (priority 2007, published 2008).

Assays:
[1] = Decomposition point temperature by thermal gravimetric analysis; type: physicochemical
Method: The decomposition point temperature, or the temperature at which a material burns or decomposes, of the antifoulants must be above the processing temperature of the polymer. As determined by thermal gravimetric analysis, the decomposition point temperatures are 210° C. for capsaicin, 208° C. for Diuron, and 196° C. for Irgarol® 1051. The processing temperatures for melt extrusion are: for PMMA, 125° C.; for CBDO terephthalates (Cycloshield®), 130° C., and for polycarbonate, 190° C. It is expected that the antibiofoulants will be entrained in the polymer matrices. This entrainment is a key to the antifouling properties of the coverglasses or windows as it is the chemical nature of the antibiofoulants that provides the antifouling properties. In a typical matrix with entrained compounds there will always be some of these compounds exposed at the surface. Further, depending on the nature of the matrix, there will also be some diffusion rate of the compounds throughout the material.

[2] = tested on: Chlorella capsulata; assay: Algae growth on antifoulant-loaded PMMA samples suspended 35 days in a salt water aquarium, read by optical transmission; type: cell-based; settings: 35 days in algae tank; for effect on algae growth: antifoulant in solvent-cast PMMA sheet
Method: To test the antifoulant properties of the capsaicin-loaded PMMA and the mixtures of algaecides and polymers, a marine environment was established. Tests were performed in a salt water environment as opposed to a freshwater environment due to the aggressive growth of salt water plants and animals. The supposition is that if the antifoulant-doped coverglass works in a salt water environment, it will work in a fresh water environment. Using a standard 5-gallon aquarium, the salt water environment was set up using a commercially available sea salt solution (INSTANT OCEAN®). The solution was prepared to have a specific gravity of 1.020-1.023, a pH of ˜8.3, and a water temperature of about 27° C. A small aliquot of Chlorella capsulata (a known aggressive biofouling algae) was obtained from the UTEX Culture Collection of Algae and grown in the aquarium. Growth of the algae was further enhanced using an algae growth promoter (KENT PRO-CULTURE). After four weeks of growth, a dense algae growth was present in the aquarium.
PMMA/capsaicin samples of varying capsaicin concentration were prepared as previously described. The samples to be tested were cut into 25×25 mm squares and suspended in the aquarium. To ensure that no location-dependent effects were incorporated into the study, the samples were rotated every few days. The aquarium lights and air system were left running at all times. The samples were left in place for 35 days.
After 35 days, the samples were removed from the tank and rinsed carefully with deionized water to remove any adhering salts. The algae coated samples were then tested for their optical transmission properties using the Ocean Optics SD2000 UV-Vis spectrometer. To properly hold and test the samples, samples wetted with a couple of drops of deionized water were placed in between two standard 1″×3″ microscope slides. […] In fact, algae grew better on the samples with a higher concentration of capsaicin.
Algae growth studies similar to that conducted for the capsaicin-loaded PMMA were then conducted for the Diuron/PMMA and Irgarol®/PMMA samples. […]

[3] = Leaching rate of algaecides from PMMA substrates in water, by UV spectroscopy; type: physicochemical; settings: for leach rate: deionized water, 35 days; for leaching into test tanks: after five months, up to the limit of the spectrometer
Method: The effective lifetimes of the antifoulant-containing coverglass materials were tested by studying the leaching rate of the algaecides from PMMA substrates in water. The UV absorption bands of Diuron (at 254 nm) and Irgarol® (at 234 nm) were used to detect their presence in aqueous solutions. To study the leaching rate, duplicate samples of the highest concentration of algaecide in PMMA (4% by weight for Diuron and 0.5% for Irgarol®; three samples each) were placed in separate closed containers of ultra-pure deionized water (18 MΩ purity). After 35 days, the concentration of algaecide that had leached into the water was determined by UV spectroscopy using a standard Beer-Lambert law relationship:
Where A is the absorbance of the compound, ε is the extinction coefficient associated with the compound, l is the cell path length, and C is the concentration of the compound. By establishing a suitable set of calibration curves, ε can be calculated from empirical results. A set of calibration curves for both Diuron and Irgarol® was established from 10^−3 M to 10^−7 M in aqueous solution. A Mineral Light Short Wave UV source was used to provide the input light, while the absorption of the samples was collected with the Ocean Optics S2000 previously discussed. Aqueous samples were placed into closed quartz cuvettes for analysis. For the UV measurements the Ocean Optics spectrometer was equipped with a UV transmissive fiber optic cable and spectra collected from 200 nm to 575 nm. Absorbance was measured at the previously mentioned values. A reference sample of ultra-pure deionized water was used for this study.
The study determined that the lower limit of the spectrometer was approximately 10^−5 M concentration for these algaecides. […] That compares favorably to the reported leach rate of 4.04 μg cm^−2 days^−1 reported for leaching of Irgarol® from marine paints.

[4] = leaching from marine paints, reported value; cited from earlier work

Compound | decomposition point temperature [1] [°C] | loss of visible transmission after algae growth ([2]; PMMA/capsaicin samples of varying capsaicin concentration) | effect on algae growth [2] | leach rate ([3]; 0.5% Irgarol in PMMA, no absorption at 234 nm) [μg cm^−2 day^−1] | leaching into test tanks [3] | reported leach rate from marine paints [4] [μg cm^−2 days^−1] | leach rate ([3]; 4% by weight Diuron in PMMA, no absorption at 254 nm)
COc1cc(CNC(=O)CCCC/C=C/C(C)C)ccc1O [capsaicin] | 210 | the greater the concentration of capsaicin, the greater was the loss of transmission | no effect in decreasing algae growth | – | – | – | –
CSc1nc(NC2CC2)nc(NC(C)(C)C)n1 [Irgarol®, N-(tert-butyl)-N′-cyclopropyl-6-(methylthio)-1,3,5-triazine-2,4-diamine] | 196 | – | – | < 1.81 | no evidence was found | 4.04 | –
CN(C)C(=O)Nc1ccc(Cl)c(Cl)c1 [Diuron, 3-(3,4-dichlorophenyl)-1,1-dimethylurea] | 208 | – | no sign of algae growth | – | no evidence was found | – | below 1.67 μg cm^−2 days^−1
